These results are taken from ChEMBL document CHEMBL6092217 (Eur J Med Chem, 2024).

A value given as a limit tells only on which side of the number the result lay.

The IC50 is the midpoint of a concentration-inhibition curve. By Kd is commonly meant the concentration at which binding is half-saturated.

One assay deals with MDA-MB-231. The assay can be described thus: cells. The settings on record: Homo sapiens, MDA-MB-231, 72 h.
The test system of a further assay is HepG2. Description: Antiproliferative activity against human HepG2 cells assessed as cell viability incubated for 72 hrs by MTT assay. It counts as functional, cell-based. The note with it: HepG2, 72 h.
Another assay concerns MCF7. Description: Antiproliferative activity against human MCF7 cells assessed as cell viability incubated for 72 hrs by MTT assay. The note with it: MCF7, 72 h. The class given is functional, cell-based. On the technique in general: Formazan colour is commonly taken as a measure of viable cells.
In a further assay the target is Tubulin. The assay can be described thus: Inhibition of tubulin polymerization (unknown origin) in presence of GTP by fluorescence plate reader analysis. The class given is protein-complex assay, Homo sapiens.
A further assay has as its system PC-3. Description: Antiproliferative activity against human PC-3 cells assessed as cell viability incubated for 72 hrs by MTT assay. The class given is functional, cell-based. The note with it: PC-3, 72 h.
Another assay relates to RKO. Description: Antiproliferative activity against human RKO cells assessed as cell viability incubated for 72 hrs by MTT assay. It counts as functional, cell-based.
Assay [1] in a line: Binding affinity to porcine brain tubulin assessed as dissociation constant measured after 20 mins by fluorescence based analysis. Details: species or system Sus scrofa.
Assay [2] concerns HT-29. Description: Antiproliferative activity against human HT-29 cells assessed as cell viability incubated for 72 hrs by MTT assay. The class given is functional, cell-based. The settings on record: HT-29, 72 h.
The test system of assay [3] is HT-29. Description: Induction of cell cycle arrest in human HT-29 cells assessed as accumulation of cells at S phase at 10 nM incubated for 24 hrs by flow cytometry analysis (reference value: 20.8 %). It counts as functional. On the technique in general: In flow cytometry, cells or beads pass a laser one at a time.
Assay [4] concerns HT-29. The assay can be described thus: Induction of apoptosis in human HT-29 cells assessed as late apoptotic cells at 20 nM incubated for 24 hrs by FITC/PI staining based flow cytometry analysis (reference value: 0.20%). It counts as functional.
The test system of assay [5] is HT-29. The assay can be described thus: Induction of apoptosis in human HT-29 cells assessed as early apoptotic cells at 20 nM incubated for 24 hrs by FITC/PI staining based flow cytometry analysis (reference value: 8.14%). The class given is functional.
For assay [6], the system named is HT-29. Description: Induction of cell cycle arrest in human HT-29 cells assessed as accumulation of cells at G2 phase at 10 nM incubated for 24 hrs by flow cytometry analysis (reference value: 13 %). The class given is functional.
Assay [7] has as its system HT-29. Description: Induction of cell cycle arrest in human HT-29 cells assessed as accumulation of cells at G1 phase at 10 nM incubated for 24 hrs by flow cytometry analysis (reference value: 67.6%). The class given is functional.
Assay [8] concerns HT-29. The assay can be described thus: Induction of apoptosis in human HT-29 cells assessed as viable cells at 20 nM incubated for 24 hrs by FITC/PI staining based flow cytometry analysis (reference value: 91.6%). The class given is functional. The note with it: read-out: Activity.
Assay [9] is described as follows: Resistance index, ratio of IC50 for human A549/TxR cells to IC50 for human A549 cells. The class given is functional.
Assay [10] concerns HT-29. Description: Induction of apoptosis in human HT-29 cells assessed as necrotic cells at 20 nM incubated for 24 hrs by FITC/PI staining based flow cytometry analysis (reference value: 0.017 %). It counts as functional.

Description for MDA-MB-231: Antiproliferative activity against human MDA-MB-231 cells assessed as cell viability incubated for 72 hrs by MTT assay

Consider `COc1ccc(N(C)c2nc(/C=C/c3ccc(OC)cc3OC)nc3ccccc23)cc1`, for which the IC50 in the assay on MDA-MB-231 was 0.24 µM; with HepG2, 0.22 µM; with MCF7, 0.14 µM; on Tubulin, over 10 µM; with PC-3 it was 0.11 µM; with RKO it was 0.12 µM. The half-inhibitory concentration (IC50) with HT-29 [2] stood at 0.047 µM. Further, the Kd in assay [1] came out at 43.3 µM.
For the molecule `COc1ccc(N(C)c2nc(/C=C/c3cccc(OC)c3OC)nc3ccccc23)cc1`, the IC50 with MDA-MB-231 amounted to 5.06 µM; with HepG2, 4.82 µM; with MCF7, 4.09 µM; in the assay on PC-3, 1.1 µM; in the assay with RKO, 1.34 µM; in the assay with HT-29 [2], 0.88 µM.
On to `COc1cc(N(C)c2nc(/C=C/c3ccccc3)nc3ccccc23)cc(OC)c1OC`, for which the IC50 with MDA-MB-231, in the assay on HepG2, with MCF7, with PC-3, in the assay on RKO and in the assay with HT-29 [2] was over 10 µM each time.
`CC(=O)O[C@H]1C(=O)[C@@]2(C)[C@H]([C@H](OC(=O)c3ccccc3)[C@]3(O)C[C@H](OC(=O)[C@H](O)[C@@H](NC(=O)c4ccccc4)c4ccccc4)C(C)=C1C3(C)C)[C@]1(OC(C)=O)CO[C@@H]1C[C@@H]2O` [PACLITAXEL]: the Activity with HT-29 [3] was found to be 15.1%; in the assay with HT-29 [4], 22.7%; in the assay on HT-29 [5] it was 5.4%; in the assay on HT-29 [6], 22.6%; in the assay with HT-29 [7], 60.2%; in the assay with HT-29 [10], 1.32%. The IC50 in the assay with MDA-MB-231 stood at 0.022 µM; in the assay on HepG2 it was 0.036 µM; in the assay with MCF7 it was 0.037 µM; with PC-3, 0.028 µM; with RKO, 0.003 µM; in the assay with HT-29 [2] it was 0.013 µM. For the same molecule, in the assay on HT-29 [8], the viability at 0.02 µM worked out at 70.6%. In assay [9], the “Ratio IC50” value was 11.29.
Consider `COc1ccc(N(C)c2nc(/C=C/c3cccc(Br)c3)nc3ccccc23)cc1`, for which the IC50 in the assay with MDA-MB-231 is 9.86 µM; in the assay with HepG2, over 10 µM; in the assay on MCF7, over 10 µM; with PC-3 it was 7.38 µM; in the assay with RKO, over 10 µM; in the assay on HT-29 [2], over 10 µM.
On to `COc1ccc(N(C)c2nc(/C=C/c3ccccc3OC)nc3ccccc23)cc1`, for which the IC50 is over 10 µM in the assay with MDA-MB-231; over 10 µM with HepG2; over 10 µM with MCF7; 0.74 µM with PC-3; over 10 µM in the assay on RKO; 8.16 µM in the assay on HT-29 [2].
